Assay results published in US8420823B2, “Long-chain fatty acyl elongase inhibitor comprising arylsulfonyl derivative as active ingredient” (MSD K.K., priority 2008, dated 2013).
pIC50: −log10 of the molar value. Counter-ions that a name gives are not always drawn.

Target: T1, human LCE (Homo sapiens, UniProt Q9H5J4)
T1 sequence (Q9H5J4 1-265): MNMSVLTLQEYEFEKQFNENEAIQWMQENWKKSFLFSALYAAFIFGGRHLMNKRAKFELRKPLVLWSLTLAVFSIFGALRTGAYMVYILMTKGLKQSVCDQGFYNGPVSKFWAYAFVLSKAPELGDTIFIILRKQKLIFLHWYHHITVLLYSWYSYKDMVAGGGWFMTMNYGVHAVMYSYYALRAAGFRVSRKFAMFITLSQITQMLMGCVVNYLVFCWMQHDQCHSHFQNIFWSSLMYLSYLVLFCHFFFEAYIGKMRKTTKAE
Assay: LCE enzyme activity-inhibitory test
Type: biochemical
Conditions: [14C]-malonyl CoA / palmitoyl CoA substrate, 37° C., 90 minutes
Description: Pharmacological Test Example 1 (LCE Enzyme Activity-inhibitory Test)
A test compound was dissolved in dimethyl sulfoxide (DMSO to be 10 mM), and then diluted with DMSO to prepare a 1000-fold concentrated solution of the test concentration. An improved Moon et al's method (J. Biol. Chem., Vol. 276, pp. 45358-45366, 2001) was employed for the LCE enzyme activity-inhibitor test. Concretely, the diluted compound was applied to a 96-well assay plate (Corning, 96-well assay block) in an amount of 1.0 μL/well; 50 μL of a phosphate buffer solution (100 mM potassium phosphate buffer, pH 6.5), and 25 μL of a substrate solution (100 mM potassium phosphate buffer (pH 6.5), 4.0 μM rotenone, 80 μM fatty acid-free bovine serum albumin, 160 μM palmitoyl CoA, 80 μM malonyl CoA, 3.5 μM [^14C]-malonyl CoA (1.92 GBq/mmol, by Amersham)) were added to each well; 25 μL of an enzyme solution (100 mM potassium phosphate buffer (pH 6.5), 100 μg/mL human LCE) was added thereto; the top of the plate was airtightly sealed up; and this was incubated with gently shaking and stirring at 37° C. for 90 minutes. Next, 100 μL of 5 M hydrochloric acid was added to each well, and the assay plate was stirred at room temperature for 5 minutes to stop the enzyme reaction with hydrolyzing the acyl CoA. Next, the enzyme reaction solution in each well was adsorbed by each well of a 96-well GF/C filter plate (Perkin Elmer Unifilter 96 GF/C); the individual wells were washed with water to remove the non-adsorbed malonyl CoA; and the GF/C filter plate was dried at 50° C. for 60 minutes. Next, 30 μL of a scintillator (Perkin Elmer Microscinti 0) was added to each well; then the top of the plate was sealed up; and the fixed [^14C] radioactivity was measured with a microplate scintillation counter (Perkin Elmer TopCount) to be the enzyme activity. The human LCE enzyme-inhibitory activity of the test compound was calculated, based on the radioactivity of the DMSO-added well with no test compound therein as a control.

SMILES	pIC50
CC(C)Oc1ccc(NC(=O)c2cccc(S(=O)(=O)N3C[C@H]4C[C@@H]3CO4)c2)cc1 [Example 1, N-(4-isopropoxyphenyl)-3-[(1R,4R)-2-oxa-5-azabicyclo[2.2.1]hept-5-ylsulfonyl]benzamide]	5.66
CC(C)Oc1ccc(NC(=O)c2cccc(S(=O)(=O)N3CC4CCC3C4)c2)cc1 (stereo not shown) [Example 2, 3-(2-Azabicyclo[2.2.1]hept-2-ylsulfonyl)-N-(4-isopropoxyphenyl)benzamide]	7.44
CC(C)Oc1ccc(NC(=O)c2cccc(S(=O)(=O)N3CCc4[nH]ncc4C3)c2)cc1 [Example 3, N-(4-isopropoxyphenyl)-3-(1,4,6,7-tetrahydro-5H-pyrazolo[4,3-c]pyridin-5-ylsulfonyl)benzamide trifluoroacetate]	5.13
CC(C)Oc1ccc(NC(=O)c2cccc(S(=O)(=O)N3CC4CC5CC(C4)CC3C5)c2)cc1 [Example 4, 3-(4-Azatricyclo[4.3.1.1^3,8]undec-4-ylsulfonyl)-N-(4-isopropoxyphenyl)benzamide]	5.29
CC(C)Oc1ccc(NC(=O)c2cccc(S(=O)(=O)N3CCCC(c4nc5ccccc5[nH]4)C3)c2)cc1 (stereo not shown) [Example 5, 3-{[3-(1H-benzimidazol-2-yl)piperidin-1-yl]sulfonyl}-N-(4-isopropoxyphenyl)benzamide]	7.52
CC(C)Oc1ccc(NC(=O)c2cccc(S(=O)(=O)NC(C3CC3)C3CC3)c2)cc1 [Example 6, 3-{[(dicyclopropylmethyl)amino]sulfonyl}-N-(4-isopropoxyphenyl)benzamide]	5.96
CC(C)Oc1ccc(NC(=O)c2cccc(S(=O)(=O)N3CCCC(c4nc5ccccc5o4)C3)c2)cc1 (stereo not shown) [Example 7, 3-{[3-(1,3-benzoxazol-2-yl)piperidin-1-yl]sulfonyl}-N-(4-isopropoxyphenyl)benzamide]	7.29
CC(C)Oc1ccc(NC(=O)c2cccc(S(=O)(=O)N3C[C@@H]4C[C@H]3CN4C)c2)cc1 [Example 8, N-(4-isopropoxyphenyl)-3-{[(1S,4S)-5-methyl-2,5-diazabicyclo[2.2.1]hept-2-yl]sulfonyl}benzamide trifluoroacetate]	5.02
CC(C)Oc1ccc(NC(=O)c2cccc(S(=O)(=O)N3CCOC(COc4ccccc4)C3)c2)cc1 (stereo not shown) [Example 9, N-(4-isopropoxyphenyl)-3-{[2-(phenoxymethyl)morpholin-4-yl]sulfonyl}benzamide]	6.82
CC(C)Oc1ccc(NC(=O)c2cccc(S(=O)(=O)N3C[C@@H]4C[C@H]3CO4)c2)cc1 [Example 10, N-(4-isopropoxyphenyl)-3-[(1S,4S)-2-oxa-5-azabicyclo[2.2.1]hept-5-ylsulfonyl]benzamide]	6.12
CC(C)Oc1ccc(NC(=O)c2cccc(S(=O)(=O)N3CCCC(c4nncn4C)C3)c2)cc1 (stereo not shown) [Example 11, N-(4-isopropoxyphenyl)-3-{[3-(4-methyl-4H-1,2,4-triazol-3-yl)piperidin-1-yl]sulfonyl}benzamide trifluoroacetate]	6.00
CC(C)Oc1ccc(NC(=O)c2cccc(S(=O)(=O)N3CCN4CCCC4C3)c2)cc1 (stereo not shown) [Example 12, 3-(Octahydropyrrolo[1,2-a]pyrazin-2(1H)-ylsulfonyl)-N-(4-isopropoxyphenyl)benzamide trifluoroacetate]	5.17
CC(C)Oc1ccc(NC(=O)c2cccc(S(=O)(=O)N3CCN4CCCCC4C3)c2)cc1 (stereo not shown) [Example 13, N-(4-Isopropoxyphenyl)-3-(octahydro-2H-pyrido[1,2-a]pyrazin-2-ylsulfonyl)benzamide trifluoroacetate]	5.28
CC(C)Oc1ccc(NC(=O)c2cccc(S(=O)(=O)N3CCCC(CN4CCOCC4)C3)c2)cc1 (stereo not shown) [Example 14, N-(4-Isopropoxyphenyl)-3-{[3-(morpholin-4-ylmethyl)piperidin-1-yl]sulfonyl}benzamide trifluoroacetate]	5.92
CC(C)Oc1ccc(NC(=O)c2cccc(S(=O)(=O)N3CCC(F)CC3)c2)cc1 [Example 15, 3-[(4-Fluoropiperidin-1-yl)sulfonyl]-N-(4-isopropoxyphenyl)benzamide]	6.92
CC(C)Oc1ccc(NC(=O)c2cccc(S(=O)(=O)N3CC4CCC3CC4)c2)cc1 [Example 16, 3-(2-Azabicyclo[2.2.2]oct-2-ylsulfonyl)-N-(4-isopropoxyphenyl)benzamide]	6.96
CC(C)Oc1ccc(NC(=O)c2cccc(S(=O)(=O)N3CCC(F)(F)CC3)c2)cc1 [Example 17, 3-[(4,4-Difluoropiperidin-1-yl)sulfonyl]-N-(4-isopropoxyphenyl)benzamide]	6.47
COC1CCCN(S(=O)(=O)c2cccc(C(=O)Nc3ccc(OC(C)C)cc3)c2)C1 (stereo not shown) [Example 18, N-(4-isopropoxyphenyl)-3-[(3-methoxypiperidin-1-yl)sulfonyl]benzamide]	6.29
CC(C)Oc1ccc(NC(=O)c2cccc(S(=O)(=O)N3CCCC(F)(F)C3)c2)cc1 [Example 19, 3-[(3,3-Difluoropiperidin-1-yl)sulfonyl]-N-(4-isopropoxyphenyl)benzamide]	5.82
CC(C)Oc1ccc(NC(=O)c2cccc(S(=O)(=O)N3CCCC(OCc4cccnc4)C3)c2)cc1 (stereo not shown) [Example 20, N-(4-isopropoxyphenyl)-3-{[3-(pyridin-3-ylmethoxy)piperidin-1-yl]sulfonyl}benzamide trifluoroacetate]	6.28
CC(C)Oc1ccc(NC(=O)c2cccc(S(=O)(=O)N3CCCC(OCc4ccccn4)C3)c2)cc1 (stereo not shown) [Example 21, N-(4-isopropoxyphenyl)-3-{[3-(pyridin-2-ylmethoxy)piperidin-1-yl]sulfonyl}benzamide trifluoroacetate]	6.70
CC(C)Oc1ccc(NC(=O)c2cccc(S(=O)(=O)N3CCc4o[nH]c(=O)c4C3)c2)cc1 [Example 22, N-(4-isopropoxyphenyl)-3-[(3-oxo-2,3,6,7-tetrahydroisoxazolo[4,5-c]pyridin-5(4H)-yl)sulfonyl]benzamide]	5.29
CC(C)Oc1ccc(NC(=O)c2cccc(S(=O)(=O)N3CCC[C@@H]3C)c2)cc1 [Example 23, N-(4-isopropoxyphenyl)-3-{[(2S)-2-methylpyrrolidin-1-yl]sulfonyl}benzamide]	6.89
CC(C)Oc1ccc(NC(=O)c2cccc(S(=O)(=O)N3CCC[C@H]3C)c2)cc1 [Example 24, N-(4-isopropoxyphenyl)-3-{[(2R)-2-methylpyrrolidin-1-yl]sulfonyl}benzamide]	6.17
CC(C)Oc1ccc(NC(=O)c2cccc(S(=O)(=O)NCC(C)c3nc4ccccc4[nH]3)c2)cc1 (stereo not shown) [Example 25, 3-({[2-(1H-benzimidazol-2-yl)propyl]amino}sulfonyl)-N-(4-isopropoxyphenyl)benzamide]	6.55
CC(C)c1ccc(NC(=O)c2cccc(S(=O)(=O)N3[C@H](C)CC[C@H]3C)c2)cc1 [Example 26, 3-{[(2R,5R)-2,5-dimethylpyrrolidin-1-yl]sulfonyl}-N-(4-isopropylphenyl)benzamide]	5.46
CC(C)c1ccc(NC(=O)c2cccc(S(=O)(=O)N3CCCCCC3)c2)cc1 [Example 27, 3-(Azepan-1-ylsulfonyl)-N-(4-isopropylphenyl)benzamide]	6.72
CC(C)c1ccc(NC(=O)c2cccc(S(=O)(=O)N3CCCC3)c2)cc1 [Example 28, N-(4-isopropylphenyl)-3-(pyrrolidin-1-ylsulfonyl)benzamide]	6.77
